Results as given in article PMC3914206.

How the values were obtained:
panel of 442 kinases [1] = molecular target: T1, panel of 442 kinases (Homo sapiens, UniProt Q09013); type: binding; settings: Compound Concentration 10 µM
T1 construct: purchased KINOMEscan
T1 sequence (Q09013 1-629): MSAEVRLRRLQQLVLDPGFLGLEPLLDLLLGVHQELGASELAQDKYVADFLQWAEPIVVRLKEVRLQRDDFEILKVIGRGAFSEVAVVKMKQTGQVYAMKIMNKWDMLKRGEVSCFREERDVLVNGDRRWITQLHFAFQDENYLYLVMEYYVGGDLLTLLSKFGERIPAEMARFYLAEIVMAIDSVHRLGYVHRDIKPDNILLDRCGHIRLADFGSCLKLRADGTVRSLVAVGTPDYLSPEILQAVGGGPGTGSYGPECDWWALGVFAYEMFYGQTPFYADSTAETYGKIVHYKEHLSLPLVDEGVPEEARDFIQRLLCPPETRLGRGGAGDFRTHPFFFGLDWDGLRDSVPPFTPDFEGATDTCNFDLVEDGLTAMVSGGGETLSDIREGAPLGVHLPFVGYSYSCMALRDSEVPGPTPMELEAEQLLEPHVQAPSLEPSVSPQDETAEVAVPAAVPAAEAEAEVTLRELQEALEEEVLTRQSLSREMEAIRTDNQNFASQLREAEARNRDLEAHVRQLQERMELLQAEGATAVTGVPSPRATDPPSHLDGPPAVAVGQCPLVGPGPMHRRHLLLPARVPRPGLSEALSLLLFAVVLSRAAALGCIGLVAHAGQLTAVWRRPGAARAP
Source text: (§1) We assessed the selectivity of members of this scaffold using the KINOMEscan methodology across a near comprehensive panel of 442 kinases [[18,27]].

panel of 442 kinases [2] = molecular target: T2, panel of 442 kinases (Homo sapiens, UniProt Q12866); type: binding; settings: Compound Concentration 10 µM
T2 construct: purchased KINOMEscan
T2 sequence (Q12866 21-999): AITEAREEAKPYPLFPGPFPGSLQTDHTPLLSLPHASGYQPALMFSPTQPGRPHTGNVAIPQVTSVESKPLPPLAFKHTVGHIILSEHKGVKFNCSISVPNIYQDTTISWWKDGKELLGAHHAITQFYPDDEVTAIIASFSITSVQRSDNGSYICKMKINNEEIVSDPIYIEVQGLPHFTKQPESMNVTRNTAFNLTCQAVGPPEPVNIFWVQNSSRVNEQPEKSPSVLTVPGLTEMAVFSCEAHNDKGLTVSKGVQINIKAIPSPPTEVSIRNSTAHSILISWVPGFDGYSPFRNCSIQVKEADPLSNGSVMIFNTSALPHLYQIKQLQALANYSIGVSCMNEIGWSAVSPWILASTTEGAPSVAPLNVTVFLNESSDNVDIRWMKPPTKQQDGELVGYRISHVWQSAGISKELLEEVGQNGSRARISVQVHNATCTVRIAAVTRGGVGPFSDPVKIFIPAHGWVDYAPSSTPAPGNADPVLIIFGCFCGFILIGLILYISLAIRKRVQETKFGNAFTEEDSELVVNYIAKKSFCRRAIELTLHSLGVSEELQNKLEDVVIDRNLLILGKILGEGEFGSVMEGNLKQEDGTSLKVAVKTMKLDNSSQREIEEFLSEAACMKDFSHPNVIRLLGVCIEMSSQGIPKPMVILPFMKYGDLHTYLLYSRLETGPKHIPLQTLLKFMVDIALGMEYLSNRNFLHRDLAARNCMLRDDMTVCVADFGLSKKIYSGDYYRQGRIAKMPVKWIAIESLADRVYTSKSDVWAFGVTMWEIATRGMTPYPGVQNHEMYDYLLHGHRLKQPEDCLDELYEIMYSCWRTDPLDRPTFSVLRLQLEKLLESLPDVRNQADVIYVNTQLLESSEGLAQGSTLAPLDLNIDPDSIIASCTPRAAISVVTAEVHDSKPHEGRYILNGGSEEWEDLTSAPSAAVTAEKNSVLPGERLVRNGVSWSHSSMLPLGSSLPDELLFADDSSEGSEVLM
Source text: as §1

Compound | KINOMEscan: DMPK (panel of 442 kinases [1]) | KINOMEscan: MERTK (panel of 442 kinases [2])
COc1cc(C(=O)N2CCC(N3CCN(C)CC3)CC2)ccc1Nc1ncc2c(n1)N1CCc3cccc(c31)C(=O)N2C [Compound 24] | 85 | –
CCOc1cc(C(=O)N2CCC(N3CCN(C)CC3)CC2)ccc1Nc1ncc2c(n1)N(C1CCCC1)c1ccccc1C(=O)N2C [Compound 26] | 100 | 100
COc1cc(C(=O)N2CCC(N3CCN(C)CC3)CC2)ccc1Nc1ncc2c(n1)N(C1CCCC1)c1ccccc1C(=O)N2C [Compound 25, 11-cyclopentyl-2-((2-methoxy-4-(4-(4-methylpiperazin-1-yl)piperidine-1-carbonyl)phenyl)amino)-5-methyl-5H-benzo[e]pyrimido[5,4-b][1,4]diazepin-6(11H)-one] | 96 | 100
COc1cc(C(=O)N2CCC(N3CCN(C)CC3)CC2)ccc1Nc1ncc2c(n1)N(C)c1ccccc1C(=O)N2C [15 (LRRK2-IN-1)] | 100 | 100
